From ChEMBL document CHEMBL4325881, “Facile synthesis of 2-aryl 5-hydroxy benzo[d]oxazoles and their in vitro anti-proliferative effects on various cancer cell lines” (Bioorg Med Chem Lett, 2018)
Activity calls are given as the source filed them. The rule behind the calls is not given here.

Tests used:
A549 = experiment: Cytotoxicity against human A549 cells assessed as reduction in cell viability after 48 hrs by MTT assay; type: functional, cell-based; conditions: A549, 48 h
[1] = Cytotoxicity against human […] cells assessed as reduction in cell viability after 48 hrs by MTT assay; type: functional, cell-based
MDA-MB-231 = experiment: Cytotoxicity against human MDA-MB-231 cells assessed as reduction in cell viability after 48 hrs by MTT assay; type: functional, cell-based; conditions: MDA-MB-231, 48 h
HeLa = experiment: Cytotoxicity against human HeLa cells assessed as reduction in cell viability after 48 hrs by MTT assay; type: functional, cell-based
HepG2 [2] = experiment: Cytotoxicity against human HepG2 cells assessed as reduction in cell viability after 48 hrs by MTT assay; type: functional, cell-based; conditions: HepG2, 48 h
HaCaT = experiment: Cytotoxicity against human HaCaT cells assessed as reduction in cell viability after 48 hrs by MTT assay; type: cell-based
HepG2 [3] = experiment: Induction of apoptosis in human HepG2 cells after 48 hrs by annexin V-FITC/propidium iodide staining-based flow cytometry analysis; type: functional, cell-based
HepG2 [4] = experiment: Induction of apoptosis in human HepG2 cells assessed as early apoptotic cells at 0.5 uM after 48 hrs by annexin V-FITC/propidium iodide staining-based flow cytometry analysis (reference value: 0.98%); type: functional
HepG2 [5] = experiment: Induction of apoptosis in human HepG2 cells assessed as late apoptotic cells at 0.5 uM after 48 hrs by annexin V-FITC/propidium iodide staining-based flow cytometry analysis (reference value: 0.26%); type: functional
HepG2 [6] = experiment: Induction of apoptosis in human HepG2 cells assessed as necrotic cells at 0.5 uM after 48 hrs by annexin V-FITC/propidium iodide staining-based flow cytometry analysis (reference value: 0.62%); type: functional
HepG2 [7] = experiment: Induction of apoptosis in human HepG2 cells assessed as viable cells at 0.5 uM after 48 hrs by annexin V-FITC/propidium iodide staining-based flow cytometry analysis (reference value: 98.14%); type: functional; conditions: HepG2, 48 h, read-out: Activity
HepG2 [8] = experiment: Induction of apoptosis in human HepG2 cells assessed as early apoptotic cells at 1 uM after 48 hrs by annexin V-FITC/propidium iodide staining-based flow cytometry analysis (reference value: 0.98%); type: functional
HepG2 [9] = experiment: Induction of apoptosis in human HepG2 cells assessed as late apoptotic cells at 1 uM after 48 hrs by annexin V-FITC/propidium iodide staining-based flow cytometry analysis (reference value: 0.26%); type: functional
HepG2 [10] = experiment: Induction of apoptosis in human HepG2 cells assessed as necrotic cells at 1 uM after 48 hrs by annexin V-FITC/propidium iodide staining-based flow cytometry analysis (reference value: 0.62%); type: functional
HepG2 [11] = experiment: Induction of apoptosis in human HepG2 cells assessed as viable cells at 1 uM after 48 hrs by annexin V-FITC/propidium iodide staining-based flow cytometry analysis (reference value: 98.14%); type: functional; conditions: HepG2, 48 h, read-out: Activity
HepG2 [12] = experiment: Induction of apoptosis in human HepG2 cells assessed as early apoptotic cells at 2.5 uM after 48 hrs by annexin V-FITC/propidium iodide staining-based flow cytometry analysis (reference value: 0.98%); type: functional
HepG2 [13] = experiment: Induction of apoptosis in human HepG2 cells assessed as late apoptotic cells at 2.5 uM after 48 hrs by annexin V-FITC/propidium iodide staining-based flow cytometry analysis (reference value: 0.26%); type: functional
HepG2 [14] = experiment: Induction of apoptosis in human HepG2 cells assessed as necrotic cells at 2.5 uM after 48 hrs by annexin V-FITC/propidium iodide staining-based flow cytometry analysis (reference value: 0.62%); type: functional
HepG2 [15] = experiment: Induction of apoptosis in human HepG2 cells assessed as viable cells at 2.5 uM after 48 hrs by annexin V-FITC/propidium iodide staining-based flow cytometry analysis (reference value: 98.14%); type: functional; conditions: HepG2, 48 h, read-out: Activity
HepG2 [16] = experiment: Induction of apoptosis in human HepG2 cells assessed as cell shrinkage at 0.5 to 2.5 uM after 48 hrs by inverted phase contrast microscopic analysis; type: functional, cell-based
HepG2 [17] = experiment: Induction of apoptosis in human HepG2 cells assessed as […] deformation at 0.5 to 2.5 uM after 48 hrs by inverted phase contrast microscopic analysis; type: functional, cell-based
HepG2 [18] = experiment: Induction of apoptosis in human HepG2 cells assessed as reduction in number of viable cells at 0.5 to 2.5 uM after 48 hrs by inverted phase contrast microscopic analysis; type: functional, cell-based
HepG2 [19] = experiment: Induction of apoptosis in human HepG2 cells assessed as cell shrinkage after 48 hrs by acridine orange/ethidium bromide staining-based fluorescence microscopic analysis; type: functional
HepG2 [20] = experiment: Induction of apoptosis in human HepG2 cells assessed as membrane blebbing after 48 hrs by acridine orange/ethidium bromide staining-based fluorescence microscopic analysis; type: functional, cell-based
HepG2 [21] = experiment: Induction of apoptosis in human HepG2 cells assessed as chromatin condensation after 48 hrs by acridine orange/ethidium bromide staining-based fluorescence microscopic analysis; type: functional, cell-based
HepG2 [22] = experiment: Induction of apoptosis in human HepG2 cells assessed as apoptotic body formation after 48 hrs by acridine orange/ethidium bromide staining-based fluorescence microscopic analysis; type: functional, cell-based
HepG2 [23] = experiment: Induction of apoptosis in human HepG2 cells assessed as condensed nuclei at 0.5 to 2.5 uM after 48 hrs by DAPI staining-based fluorescence microscopic analysis; type: functional, cell-based
HepG2 [24] = experiment: Induction of apoptosis in human HepG2 cells assessed as horse-shoe shaped nuclei at 0.5 to 2.5 uM after 48 hrs by DAPI staining-based fluorescence microscopic analysis; type: functional, cell-based
HepG2 [25] = experiment: Induction of apoptosis in human HepG2 cells assessed as fragmented nuclei at 0.5 to 2.5 uM after 48 hrs by DAPI staining-based fluorescence microscopic analysis; type: functional, cell-based
HepG2 [26] = experiment: Cell cycle arrest in human HepG2 cells assessed as accumulation at sub-G1 phase at 0.5 uM after 24 hrs by propidium iodide staining based flow cytometric analysis (reference value: 1.73%); type: functional
HepG2 [27] = experiment: Cell cycle arrest in human HepG2 cells assessed as accumulation at G0/G1 phase at 0.5 uM after 24 hrs by propidium iodide staining based flow cytometric analysis (reference value: 49.93%); type: functional
HepG2 [28] = experiment: Cell cycle arrest in human HepG2 cells assessed as accumulation at S phase at 0.5 uM after 24 hrs by propidium iodide staining based flow cytometric analysis (reference value: 7.57%); type: functional
HepG2 [29] = experiment: Cell cycle arrest in human HepG2 cells assessed as accumulation at G2/M phase at 0.5 uM after 24 hrs by propidium iodide staining based flow cytometric analysis (reference value: 28.79%); type: functional
HepG2 [30] = experiment: Cell cycle arrest in human HepG2 cells assessed as accumulation at sub-G1 phase at 1 uM after 24 hrs by propidium iodide staining based flow cytometric analysis (reference value: 1.73%); type: functional
HepG2 [31] = experiment: Cell cycle arrest in human HepG2 cells assessed as accumulation at G0/G1 phase at 1 uM after 24 hrs by propidium iodide staining based flow cytometric analysis (reference value: 49.93%); type: functional
HepG2 [32] = experiment: Cell cycle arrest in human HepG2 cells assessed as accumulation at S phase at 1 uM after 24 hrs by propidium iodide staining based flow cytometric analysis (reference value: 7.57%); type: functional
HepG2 [33] = experiment: Cell cycle arrest in human HepG2 cells assessed as accumulation at G2/M phase at 1 uM after 24 hrs by propidium iodide staining based flow cytometric analysis (reference value: 28.79%); type: functional
HepG2 [34] = experiment: Cell cycle arrest in human HepG2 cells assessed as accumulation at sub-G1 phase at 2.5 uM after 24 hrs by propidium iodide staining based flow cytometric analysis (reference value: 1.73%); type: functional
HepG2 [35] = experiment: Cell cycle arrest in human HepG2 cells assessed as accumulation at G0/G1 phase at 2.5 uM after 24 hrs by propidium iodide staining based flow cytometric analysis (reference value: 49.93%); type: functional
HepG2 [36] = experiment: Cell cycle arrest in human HepG2 cells assessed as accumulation at S phase at 2.5 uM after 24 hrs by propidium iodide staining based flow cytometric analysis (reference value: 7.57%); type: functional
HepG2 [37] = experiment: Cell cycle arrest in human HepG2 cells assessed as accumulation at G2/M phase at 2.5 uM after 24 hrs by propidium iodide staining based flow cytometric analysis (reference value: 28.79%); type: functional
HepG2 [38] = experiment: Induction of ROS accumulation in human HepG2 cells after 48 hrs by DCF-DA staining based fluorescence microscopic analysis; type: functional, cell-based
HepG2 [39] = experiment: Anticlonogenic activity against human HepG2 cells incubated for 24 hrs followed by fresh media replacement and measured after 12 days by crystal violet staining based assay; type: functional, cell-based
HepG2 [40] = experiment: Induction of apoptosis in human HepG2 cells assessed as mitochondrial polarized cells level at 0.5 uM after 48 hrs by JC-1 staining based flow cytometric method (reference value: 93.02%); type: functional
HepG2 [41] = experiment: Induction of apoptosis in human HepG2 cells assessed as mitochondrial depolarized cells level at 0.5 uM after 48 hrs by JC-1 staining based flow cytometric method (reference value: […]); type: functional
HepG2 [42] = experiment: Induction of apoptosis in human HepG2 cells assessed as mitochondrial polarized cells level at 1 uM after 48 hrs by JC-1 staining based flow cytometric method (reference value: 93.02%); type: functional
HepG2 [43] = experiment: Induction of apoptosis in human HepG2 cells assessed as mitochondrial depolarized cells level at 1 uM after 48 hrs by JC-1 staining based flow cytometric method (reference value: […]); type: functional
HepG2 [44] = experiment: Induction of apoptosis in human HepG2 cells assessed as mitochondrial polarized cells level at 2.5 uM after 48 hrs by JC-1 staining based flow cytometric method (reference value: 93.02%); type: functional
HepG2 [45] = experiment: Induction of apoptosis in human HepG2 cells assessed as mitochondrial depolarized cells level at 2.5 uM after 48 hrs by JC-1 staining based flow cytometric method (reference value: […]); type: functional
HepG2 [46] = experiment: Induction of apoptosis in human HepG2 cells assessed as increase in loss of mitochondrial membrane potential after 48 hrs by JC-1 staining based flow cytometric method; type: functional, cell-based

## O=Cc1c(O)ccc2oc(-c3ccccc3Cl)nc12
A549
  IC50: 7.68 µM
[1]
  IC50: 14 µM
MDA-MB-231
  IC50: 5.66 µM
HeLa
  IC50: 14.1 µM
HepG2 [2]
  IC50: 10.5 µM
HaCaT
  IC50: 12.1 µM

## CC(=O)c1c(O)ccc2oc(-c3ccccc3)nc12
A549
  IC50: > 30 µM
[1]
  IC50: > 30 µM
MDA-MB-231
  IC50: > 30 µM
HeLa
  IC50: > 30 µM
HepG2 [2]
  IC50: > 30 µM
HaCaT
  IC50: > 30 µM

## O=Cc1c(O)ccc2oc(-c3cccc(Cl)c3)nc12
A549
  IC50: 1.87 µM
[1]
  IC50: 0.98 µM
MDA-MB-231
  IC50: 1.33 µM
HeLa
  IC50: 2.18 µM
HepG2 [2]
  IC50: 0.81 µM
HaCaT
  IC50: 17.8 µM
HepG2 [3]
  Activity: Dose-dependent effect
HepG2 [4]
  Activity: 12.5%
HepG2 [5]
  Activity: 0.75%
HepG2 [6]
  Activity: 2.42%
HepG2 [7]
  viability at 0.5 µM: 83.3%
HepG2 [8]
  Activity: 34.2%
HepG2 [9]
  Activity: 0.55%
HepG2 [10]
  Activity: 1.84%
HepG2 [11]
  viability at 1 µM: 63.4%
HepG2 [12]
  Activity: 56.17%
HepG2 [13]
  Activity: 1.64%
HepG2 [14]
  Activity: 2.01%
HepG2 [15]
  viability at 2.5 µM: 40.2%
HepG2 [16]
  Activity: Active
HepG2 [17]
  Activity: Active
HepG2 [18]
  Activity: Active
HepG2 [19]
  Activity: Dose-dependent effect
HepG2 [20]
  Activity: Dose-dependent effect
HepG2 [21]
  Activity: Dose-dependent effect
HepG2 [22]
  Activity: Dose-dependent effect
HepG2 [23]
  Activity: Active
HepG2 [24]
  Activity: Active
HepG2 [25]
  Activity: Active
HepG2 [26]
  Activity: 2.42%
HepG2 [27]
  Activity: 59.01%
HepG2 [28]
  Activity: 6.61%
HepG2 [29]
  Activity: 23.05%
HepG2 [30]
  Activity: 5.64%
HepG2 [31]
  Activity: 50.36%
HepG2 [32]
  Activity: 5.53%
HepG2 [33]
  Activity: 27.15%
HepG2 [34]
  Activity: 13.2%
HepG2 [35]
  Activity: 45.52%
HepG2 [36]
  Activity: 8.32%
HepG2 [37]
  Activity: 22.57%
HepG2 [38]
  Activity: Dose-dependent effect
HepG2 [39]
  Activity: Dose-dependent effect
HepG2 [40]
  Activity: 85.46%
HepG2 [41]
  Activity: 14.91%
HepG2 [42]
  Activity: 74.54%
HepG2 [43]
  Activity: 25.87%
HepG2 [44]
  Activity: 29.19%
HepG2 [45]
  Activity: 71.49%
HepG2 [46]
  Activity: Dose-dependent effect
